According to ChEMBL document CHEMBL1909046, “DrugMatrix in vitro pharmacology data”:

How the values were obtained:
[1] = molecular target: T1, Alpha-2A adrenergic receptor (Homo sapiens, UniProt P08913); format: cell membranes, Sf9, Membrane; details: sf9; also: in other assays of this panel Not Active means under 50% inhibition at 10 µM
T1 sequence (P08913 whole entry): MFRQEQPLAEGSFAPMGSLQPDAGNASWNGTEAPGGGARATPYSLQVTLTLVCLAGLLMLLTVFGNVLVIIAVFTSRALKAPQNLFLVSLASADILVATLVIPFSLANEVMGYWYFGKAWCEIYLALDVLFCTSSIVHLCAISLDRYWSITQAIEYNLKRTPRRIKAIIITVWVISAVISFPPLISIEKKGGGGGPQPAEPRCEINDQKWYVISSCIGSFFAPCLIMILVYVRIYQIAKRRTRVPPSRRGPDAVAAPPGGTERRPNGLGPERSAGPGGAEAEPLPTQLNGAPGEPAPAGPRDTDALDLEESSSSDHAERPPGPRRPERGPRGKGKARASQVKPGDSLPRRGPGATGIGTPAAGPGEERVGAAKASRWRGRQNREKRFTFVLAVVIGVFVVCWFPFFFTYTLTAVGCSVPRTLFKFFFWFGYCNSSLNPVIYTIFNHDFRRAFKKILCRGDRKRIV

[2] = molecular target: T2, Cytochrome P450 2A6 (Homo sapiens, UniProt P11509); details: bti-tn-5b1-4; also: in other assays of this panel Not Active means under 50% inhibition at 10 µM
T2 sequence (P11509 whole entry): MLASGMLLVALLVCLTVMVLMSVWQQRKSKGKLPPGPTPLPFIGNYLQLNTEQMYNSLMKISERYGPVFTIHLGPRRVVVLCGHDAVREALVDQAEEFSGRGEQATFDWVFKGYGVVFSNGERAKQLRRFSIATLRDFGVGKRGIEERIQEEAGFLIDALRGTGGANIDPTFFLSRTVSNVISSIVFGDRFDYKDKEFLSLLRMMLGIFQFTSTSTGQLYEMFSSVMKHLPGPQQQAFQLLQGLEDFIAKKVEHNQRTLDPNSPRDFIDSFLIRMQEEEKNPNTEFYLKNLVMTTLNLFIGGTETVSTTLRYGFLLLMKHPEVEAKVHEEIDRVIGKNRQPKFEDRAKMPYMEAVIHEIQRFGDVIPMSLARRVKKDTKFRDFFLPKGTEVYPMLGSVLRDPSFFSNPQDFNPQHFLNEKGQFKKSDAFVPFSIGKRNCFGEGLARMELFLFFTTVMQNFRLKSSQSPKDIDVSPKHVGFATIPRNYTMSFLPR

[3] = molecular target: Beta-1 adrenergic receptor (Homo sapiens, UniProt P08588); assay: DRUGMATRIX: Adrenergic beta1 radioligand binding (ligand: [125I] Cyanopindolol); format: cell membranes, CHO-K1, Membrane; details: cho-k1; Not Active = under 50% inhibition at 10 µM
[4] = DRUGMATRIX: Imidazoline I2, Central radioligand binding (ligand: [3H] Idazoxan); format: cell membranes, Rattus norvegicus, Wistar, Cerebral cortex, Membrane; details: Not Active = under 50% inhibition at 10 µM
[5] = DRUGMATRIX: Atrial Natriuretic Factor (ANF) radioligand binding (ligand: [125I] ANF (rat)); format: cell membranes, Cavia porcellus, Dunkin-Hartley, Adrenal gland, Membrane; details: Not Active = under 50% inhibition at 10 µM
[6] = molecular target: Glycine receptor (Rattus norvegicus, UniProt P22771+P24524+P07727+P20781); format: cell membranes, Wistar, Spinal cord, Membrane; also: in other assays of this panel Not Active means under 50% inhibition at 10 µM

Chain of Beta-1 adrenergic receptor (P08588 whole entry): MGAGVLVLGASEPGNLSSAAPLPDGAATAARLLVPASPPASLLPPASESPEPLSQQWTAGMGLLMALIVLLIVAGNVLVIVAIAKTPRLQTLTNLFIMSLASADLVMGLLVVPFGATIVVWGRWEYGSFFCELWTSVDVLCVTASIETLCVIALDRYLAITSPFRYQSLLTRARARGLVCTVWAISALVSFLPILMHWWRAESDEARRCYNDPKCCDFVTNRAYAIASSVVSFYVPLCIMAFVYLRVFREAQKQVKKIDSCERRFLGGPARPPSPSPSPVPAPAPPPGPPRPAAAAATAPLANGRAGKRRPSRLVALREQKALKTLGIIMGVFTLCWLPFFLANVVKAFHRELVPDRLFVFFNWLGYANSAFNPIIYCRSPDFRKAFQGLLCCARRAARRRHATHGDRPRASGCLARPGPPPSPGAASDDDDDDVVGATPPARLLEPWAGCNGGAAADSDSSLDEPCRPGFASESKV

CC[C@]1(O)C[C@@H]2CN(CCc3c([nH]c4ccccc34)[C@@](C(=O)OC)(c3cc4c(cc3OC)N(C)[C@H]3[C@@](O)(C(N)=O)[C@H](O)[C@]5(CC)C=CCN6CC[C@]43[C@@H]65)C2)C1 [VINDESINE]
Not Active: IC50 [1] | IC50 [2] | Ki [2] | IC50 [3] | IC50 [4] | Ki [4] | IC50 [5] | Ki [5] | IC50 [6]

CCN(C(C)=O)c1cccc(-c2ccnc3c(C#N)cnn23)c1 [ZALEPLON]
Not Active: IC50 [1] | IC50 [2] | Ki [2] | IC50 [3] | IC50 [4] | Ki [4] | IC50 [5] | Ki [5] | IC50 [6]

COBALTOUS CHLORIDE
Not Active: IC50 [1] | Ki [1] | IC50 [2] | Ki [2] | IC50 [3] | Ki [3] | IC50 [4] | Ki [4] | IC50 [5] | Ki [5] | IC50 [6] | Ki [6]

COLISTIN
Not Active: IC50 [1] | Ki [1] | IC50 [2] | Ki [2] | IC50 [3] | Ki [3] | IC50 [4] | Ki [4] | IC50 [5] | Ki [5] | IC50 [6] | Ki [6]
